From patent US7763582B2 (University of Medicine and Dentistry Of New Jersey, priority 2006, dated 2010)

Key:
fractured femora [1] = assay: Mechanical (torsional) testing of fractured femora, BB Wistar rats (Example 1); assay type: in vivo; conditions: 4 weeks
Source text: (§1) A closed mid-diaphyseal fracture was created in the right femur using the following modification of the methods described in Bonnarens, F., and Einhorn, T. A., “Production of a standard closed fracture in laboratory animal bone,” J. Orthop. Res., vol. 2, pages 97-101 (1984). Once a medial, parapatellar incision was made, the patella was dislocated laterally and the interchondylar notch of the distal femur was exposed. An entry hole was made with an 18 gauge needle and the femur was reamed. A 16 gauge teflon cannula was then inserted into the intramedullary canal to stabilize the fracture while a closed midshaft fracture was created unilaterally with the use of a three-point bending, Einhorn fracture machine. Once the fracture was created, the cannula was removed and replaced with a 1.2 mm hollow rod in the Sprague-Dawley rats and a 1 mm Kirschner wire in the BB Wistar rat. […] The animals were allowed to ambulate freely immediately post-fracture.
(§2) Fractured and contralateral femora were resected at 4 weeks and cleaned of soft tissue. Femora were cleaned of soft tissue and the intramedullary rod was removed. Samples were wrapped in saline (0.9% NaCl) soaked gauze and stored at −20° C. Prior to testing, all femora were removed from the freezer and allowed to thaw to room temperature for three to four hours. The proximal and distal ends of the fractured and contralateral femora were embedded in Wood's metal. Torsional testing was conducted using a servohydraulics machine (MTS Systems Corp., Eden Prairie, Minn.) with a 20 Nm reaction torque cell (Interface, Scottsdale, Ariz.) and tested to failure at a rate of 2.0 deg/sec.
(§3) The peak torque (T), torsional rigidity (TR), […] (G) and the maximum shear stress ( ) were determined through standard equations modeling each femur as a hollow ellipse. In order to compare the biomechanical parameters between different groups, the data was normalized by dividing each fractured femur value by its corresponding intact, contralateral femur value.

fractured femora [2] = assay: Mechanical (torsional) testing of fractured femora, Sprague-Dawley rats; assay type: in vivo; conditions: 4 weeks
Source text: as §1, §2, §3

fractured femora [3] = assay: Qualitative histology of early fracture callus at day 4; assay type: in vivo, BB Wistar rats
Source text: as §1
The fractured femora were resected at day 4, decalcified, embedded and sectioned using standard histological techniques. To identify cartilage formation, sections were stained with Accustain™ Trichrome Staining kit (Masson, Sigma Diagnostics, St. Louis, Mo.) for histologic observation. The staining procedure consisted of fixing the sections in Accustain™ Bouins solution (Sigma Diagnostics, St. Louis, Mo.) overnight. […]

[4] = fractured femora, versus untreated, FIG. 4
[5] = normalized to intact contralateral femora
[6] = fractured femora, versus untreated, FIG. 3

Q: For ultralente insulin, which maximum shear stress (fractured femora [1]; [4]) is on record?
A: significantly increased

Q: What about the sheer modulus (fractured femora [1]; [4]) of the same substance?
A: trending towards significance

Q: And the torque to failure (fractured femora [1]; [4])?
A: significantly increased

Q: What about the torsional rigidity (fractured femora [1]; [4]) of the same substance?
A: trending towards significance

Q: What about the “mechanical properties of the fractured femora” value (fractured femora [1]; versus untreated group, FIG. 4) of the same substance?
A: improved

Q: What about the percent sheer modulus (fractured femora [1]; [5]) of the same substance?
A: trending towards significance

Q: What about the percent torsional rigidity (fractured femora [1]; [5]) of the same substance?
A: trending towards significance

Q: What about the maximum shear stress (fractured femora [2]; [6]) of the same substance?
A: significantly increased

Q: What about the sheer modulus (fractured femora [2]; [6]) of the same substance?
A: significantly increased

Q: What about the torque to failure (fractured femora [2]; [6]) of the same substance?
A: significantly increased

Q: What about the torsional rigidity (fractured femora [2]; [6]) of the same substance?
A: significantly increased

Q: And the “mechanical properties of the fractured femora” value (fractured femora [2]; versus untreated group, FIG. 3)?
A: improved

Q: What about the “percent maximum shear stress” value (fractured femora [2]; [5]) of the same substance?
A: trending towards significance

Q: And the percent sheer modulus (fractured femora [2]; [5])?
A: significantly increased

Q: And the “percent torque to failure” value (fractured femora [2]; [5])?
A: trending towards significance

Q: And the percent torsional rigidity (fractured femora [2]; [5])?
A: significantly increased

Q: And the “osteoid matrix in callus” value (fractured femora [3]; not present in untreated group)?
A: present

Q: And the “chondrocytes in fracture callus (histology)” value (fractured femora [3]; untreated group showed only proliferating chondrocytes, FIG. 2)?
A: presence of proliferating and hypertrophic chondrocytes
